Assay results: ChEMBL document CHEMBL4270663, “6-Benzhydryl-4-amino-quinolin-2-ones as Potent Cannabinoid Type 1 (CB1) Receptor Inverse Agonists and Chemical Modifications for Peripheral Selectivity” (J Med Chem, 2018)
Calls of active or inactive are those of the source. No cut-off for these calls is given here.

Legend:
[1] = system: Mus musculus; assay: Antiobesity activity in diet induced obese C57BL/6J mouse model assessed as decrease in food intake at 3 mg/kg, po administered as daily dose measured every day for 5 days and continuing every other day till day 8 and 15; assay type: functional, organism-based
[2] = target: Cytochrome P450 2C9 (Homo sapiens, UniProt P11712); assay: Inhibition of CYP2C9 in human liver microsomes using tolbutamide as substrate after 10 to 30 mins by LC/MS analysis; assay type: ADME
Cytochrome P450 2C9, sequence (P11712 whole entry): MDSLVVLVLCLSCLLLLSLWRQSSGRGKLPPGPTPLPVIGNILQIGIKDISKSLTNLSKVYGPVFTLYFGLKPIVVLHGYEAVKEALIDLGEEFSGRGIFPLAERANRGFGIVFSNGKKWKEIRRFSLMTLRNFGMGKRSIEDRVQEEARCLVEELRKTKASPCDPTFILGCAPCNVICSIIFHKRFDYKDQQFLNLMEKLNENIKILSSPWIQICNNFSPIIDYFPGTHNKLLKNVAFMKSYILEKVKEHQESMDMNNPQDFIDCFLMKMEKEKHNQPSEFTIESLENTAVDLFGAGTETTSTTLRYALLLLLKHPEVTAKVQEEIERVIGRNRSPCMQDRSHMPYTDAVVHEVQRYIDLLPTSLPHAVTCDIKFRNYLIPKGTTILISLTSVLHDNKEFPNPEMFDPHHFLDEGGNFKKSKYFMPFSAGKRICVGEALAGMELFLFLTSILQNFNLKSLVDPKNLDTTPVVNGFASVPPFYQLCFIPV

[3] = Drug uptake in brain of diet-induced obese C57BL/6J mouse model at 1 mg/kg, po administered as daily dose measured at 2 hrs post last dose on day 23; assay type: ADME, organism-based; details: in vivo
[4] = Metabolic stability in mouse liver microsomes assessed as parent compound remaining at 1 uM after 10 mins in presence of NADPH; assay type: ADME, microsome; details: read-out: Stability
[5] = system: Mus musculus; assay: Induction of insulin sensitivity in diet induced obese C57BL/6J mouse model at 3 to 10 mg/kg, po administered as daily dose measured at day 26 post last dose; assay type: functional, organism-based
[6] = Drug uptake in plasma of diet-induced obese C57BL/6J mouse model at 10 mg/kg, po administered as daily dose measured at 2 hrs post last dose on day 22; assay type: ADME, organism-based
[7] = Drug uptake in C57BL/6J mouse brain at 20 mg/kg, po measured after 1 hr; assay type: ADME, organism-based; details: in vivo
[8] = Ratio of drug level in C57BL/6J mouse brain to plasma at 20 mg/kg, po measured after 1 hr; assay type: ADME, organism-based; details: read-out: BPR
[9] = Drug uptake in plasma of diet-induced obese C57BL/6J mouse model at 10 mg/kg, po administered as daily dose measured at 2 hrs post last dose on day 1; assay type: ADME, organism-based
[10] = target: Cytochrome P450 2D6 (Homo sapiens, UniProt P10635); assay: Inhibition of CYP2D6 in human liver microsomes using dextromethorphan as substrate after 10 to 30 mins by LC/MS analysis; assay type: ADME
Cytochrome P450 2D6, sequence (P10635 whole entry): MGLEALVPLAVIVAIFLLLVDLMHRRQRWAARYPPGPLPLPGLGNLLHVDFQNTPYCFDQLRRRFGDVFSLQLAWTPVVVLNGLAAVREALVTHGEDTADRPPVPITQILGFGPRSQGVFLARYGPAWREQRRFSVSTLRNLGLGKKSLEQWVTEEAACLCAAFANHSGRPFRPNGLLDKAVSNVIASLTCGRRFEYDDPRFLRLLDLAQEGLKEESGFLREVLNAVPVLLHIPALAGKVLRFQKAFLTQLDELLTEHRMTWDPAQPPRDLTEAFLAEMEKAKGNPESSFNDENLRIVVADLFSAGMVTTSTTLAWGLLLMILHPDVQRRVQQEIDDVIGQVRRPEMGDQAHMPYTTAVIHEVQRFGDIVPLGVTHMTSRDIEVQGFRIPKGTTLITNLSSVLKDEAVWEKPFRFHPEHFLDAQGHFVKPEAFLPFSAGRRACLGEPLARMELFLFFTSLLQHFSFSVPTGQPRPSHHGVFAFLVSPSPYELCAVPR

[11] = Metabolic stability in rat liver microsomes assessed as parent compound remaining at 1 uM after 10 mins in presence of NADPH; assay type: ADME, microsome; details: read-out: Stability
[12] = target: Cytochrome P450 2C19 (Homo sapiens, UniProt P33261); assay: Inhibition of CYP2C19 in human liver microsomes using (S)-mephenytoin as substrate after 10 to 30 mins by LC/MS analysis; assay type: ADME
Cytochrome P450 2C19, sequence (P33261 whole entry): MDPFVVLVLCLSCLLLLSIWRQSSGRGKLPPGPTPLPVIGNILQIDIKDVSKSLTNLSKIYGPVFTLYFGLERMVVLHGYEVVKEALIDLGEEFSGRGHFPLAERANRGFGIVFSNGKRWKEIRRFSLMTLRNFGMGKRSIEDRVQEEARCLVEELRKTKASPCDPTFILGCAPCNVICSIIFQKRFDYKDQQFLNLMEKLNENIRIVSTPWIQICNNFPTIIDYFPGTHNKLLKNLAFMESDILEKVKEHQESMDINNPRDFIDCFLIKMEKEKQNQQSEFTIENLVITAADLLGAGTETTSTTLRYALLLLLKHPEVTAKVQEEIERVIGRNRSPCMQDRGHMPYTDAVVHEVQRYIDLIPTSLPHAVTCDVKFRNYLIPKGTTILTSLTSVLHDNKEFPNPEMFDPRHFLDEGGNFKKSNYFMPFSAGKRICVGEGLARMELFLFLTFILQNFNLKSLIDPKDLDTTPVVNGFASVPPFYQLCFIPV

[13] = Ratio of drug level in brain to plasma of MDR1a knockout CF-1 mouse at 20 mg/kg, po; assay type: ADME, organism-based; details: read-out: BPR
[14] = Cmax in C57BL/6J mouse at 20 mg/kg, po administered via gavage by LC-MS/MS analysis; assay type: ADME, organism-based; parameters: dose 20 mg/kg, route oral; details: in vivo
[15] = system: Mus musculus; assay: Antiobesity activity in diet induced obese C57BL/6J mouse model assessed as decrease in food intake at 30 mg/kg administered as daily dose measured every day for 5 days; assay type: functional, organism-based
[16] = system: Mus musculus; assay: In vivo receptor occupancy at CB1 receptor in brain of diet induced obese C57BL/6J mouse model at 30 mg/kg, po administered as daily dose for 5 days measured 10 mins post last dose in presence of [3H]-CP-55940 relative to control; assay type: functional
[17] = target: Cannabinoid receptor 2 (Homo sapiens, UniProt P34972); assay: Inverse agonist activity at human CB2 receptor expressed in HEK293 cells assessed as […] cAMP accumulation after 30 mins by HTRF assay; assay type: functional, cell-based
Cannabinoid receptor 2, sequence (P34972 whole entry): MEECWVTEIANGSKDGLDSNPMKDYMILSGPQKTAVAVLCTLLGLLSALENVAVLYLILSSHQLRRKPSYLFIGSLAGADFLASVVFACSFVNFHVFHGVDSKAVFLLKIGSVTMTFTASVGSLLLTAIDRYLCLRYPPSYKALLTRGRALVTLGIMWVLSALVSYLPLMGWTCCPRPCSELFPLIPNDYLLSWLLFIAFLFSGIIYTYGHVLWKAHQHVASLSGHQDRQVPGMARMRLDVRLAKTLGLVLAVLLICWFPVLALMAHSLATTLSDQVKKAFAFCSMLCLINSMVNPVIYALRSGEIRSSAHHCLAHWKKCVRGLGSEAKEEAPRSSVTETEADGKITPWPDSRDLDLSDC

[18] = Drug uptake in brain of diet-induced obese C57BL/6J mouse model at 30 mg/kg administered as daily dose measured at 2 hrs post last dose on day 5; assay type: ADME, organism-based; details: in vivo
[19] = Drug uptake in plasma of diet-induced obese C57BL/6J mouse model at 30 mg/kg administered as daily dose measured at 2 hrs post last dose on day 5; assay type: ADME, organism-based
[20] = Ratio of drug level in brain to plasma of diet-induced obese C57BL/6J mouse model at 3 mg/kg, po administered as daily dose measured at 2 hrs post last dose on day 23; assay type: ADME, organism-based; details: read-out: BPR
[21] = Half life in C57BL/6J mouse at 5 mg/kg, iv by LC-MS/MS analysis; assay type: ADME, organism-based; details: in vivo
[22] = Volume of distribution at steady state in C57BL/6J mouse at 5 mg/kg, iv or 20 mg/kg, po administered via gavage by LC-MS/MS analysis; assay type: ADME, organism-based; details: in vivo, read-out: Vdss
[23] = target: Cannabinoid receptor 1 (Homo sapiens, UniProt P21554); assay: Potency index, ratio of rimonabant IC50 to compound IC50 for displacement of [3H]-CP-55940 from human CB1 receptor expressed in CHO-K1 cell membranes
Cannabinoid receptor 1, sequence (P21554 whole entry): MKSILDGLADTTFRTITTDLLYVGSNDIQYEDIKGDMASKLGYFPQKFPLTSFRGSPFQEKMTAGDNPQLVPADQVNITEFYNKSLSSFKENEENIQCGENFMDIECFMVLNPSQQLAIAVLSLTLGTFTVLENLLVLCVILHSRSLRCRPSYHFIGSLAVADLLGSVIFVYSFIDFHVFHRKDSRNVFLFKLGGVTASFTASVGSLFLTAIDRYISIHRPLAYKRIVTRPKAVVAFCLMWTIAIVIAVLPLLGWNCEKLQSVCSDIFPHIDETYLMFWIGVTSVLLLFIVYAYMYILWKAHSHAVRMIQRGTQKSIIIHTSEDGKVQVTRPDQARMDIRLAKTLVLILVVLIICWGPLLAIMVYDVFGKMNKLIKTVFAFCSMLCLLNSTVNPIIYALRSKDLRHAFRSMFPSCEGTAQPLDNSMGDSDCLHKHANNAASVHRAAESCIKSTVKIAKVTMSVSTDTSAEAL

[24] = system: Salmonella typhimurium; assay: Mutagenicity in Salmonella typhimurium by Ames test; assay type: toxicity, organism-based; details: salmonella enterica subsp. enterica serovar typhimurium
[25] = target: T1, Cytochrome P450 1A2 (Homo sapiens, UniProt P05177); assay: Inhibition of CYP1A2 in human liver microsomes using phenacetin as substrate after 10 to 30 mins by LC/MS analysis; assay type: ADME
T1 sequence (P05177 whole entry): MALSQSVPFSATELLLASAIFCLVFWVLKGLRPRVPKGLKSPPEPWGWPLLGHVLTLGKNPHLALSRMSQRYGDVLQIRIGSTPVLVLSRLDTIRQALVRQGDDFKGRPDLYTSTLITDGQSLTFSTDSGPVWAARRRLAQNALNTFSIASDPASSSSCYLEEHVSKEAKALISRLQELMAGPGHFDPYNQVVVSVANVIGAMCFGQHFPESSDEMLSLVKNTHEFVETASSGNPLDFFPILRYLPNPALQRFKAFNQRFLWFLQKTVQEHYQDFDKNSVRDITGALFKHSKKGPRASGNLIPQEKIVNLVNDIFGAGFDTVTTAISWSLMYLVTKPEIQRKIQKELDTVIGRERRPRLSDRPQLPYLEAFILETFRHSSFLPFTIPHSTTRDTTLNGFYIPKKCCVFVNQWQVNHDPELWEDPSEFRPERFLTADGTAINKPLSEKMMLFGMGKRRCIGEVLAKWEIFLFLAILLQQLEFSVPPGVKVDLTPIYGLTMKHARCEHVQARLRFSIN

[26] = target: Voltage-gated inwardly rectifying potassium channel KCNH2 (Homo sapiens, UniProt Q12809); assay: Inhibition of human ERG
Voltage-gated inwardly rectifying potassium channel KCNH2, sequence (Q12809 whole entry): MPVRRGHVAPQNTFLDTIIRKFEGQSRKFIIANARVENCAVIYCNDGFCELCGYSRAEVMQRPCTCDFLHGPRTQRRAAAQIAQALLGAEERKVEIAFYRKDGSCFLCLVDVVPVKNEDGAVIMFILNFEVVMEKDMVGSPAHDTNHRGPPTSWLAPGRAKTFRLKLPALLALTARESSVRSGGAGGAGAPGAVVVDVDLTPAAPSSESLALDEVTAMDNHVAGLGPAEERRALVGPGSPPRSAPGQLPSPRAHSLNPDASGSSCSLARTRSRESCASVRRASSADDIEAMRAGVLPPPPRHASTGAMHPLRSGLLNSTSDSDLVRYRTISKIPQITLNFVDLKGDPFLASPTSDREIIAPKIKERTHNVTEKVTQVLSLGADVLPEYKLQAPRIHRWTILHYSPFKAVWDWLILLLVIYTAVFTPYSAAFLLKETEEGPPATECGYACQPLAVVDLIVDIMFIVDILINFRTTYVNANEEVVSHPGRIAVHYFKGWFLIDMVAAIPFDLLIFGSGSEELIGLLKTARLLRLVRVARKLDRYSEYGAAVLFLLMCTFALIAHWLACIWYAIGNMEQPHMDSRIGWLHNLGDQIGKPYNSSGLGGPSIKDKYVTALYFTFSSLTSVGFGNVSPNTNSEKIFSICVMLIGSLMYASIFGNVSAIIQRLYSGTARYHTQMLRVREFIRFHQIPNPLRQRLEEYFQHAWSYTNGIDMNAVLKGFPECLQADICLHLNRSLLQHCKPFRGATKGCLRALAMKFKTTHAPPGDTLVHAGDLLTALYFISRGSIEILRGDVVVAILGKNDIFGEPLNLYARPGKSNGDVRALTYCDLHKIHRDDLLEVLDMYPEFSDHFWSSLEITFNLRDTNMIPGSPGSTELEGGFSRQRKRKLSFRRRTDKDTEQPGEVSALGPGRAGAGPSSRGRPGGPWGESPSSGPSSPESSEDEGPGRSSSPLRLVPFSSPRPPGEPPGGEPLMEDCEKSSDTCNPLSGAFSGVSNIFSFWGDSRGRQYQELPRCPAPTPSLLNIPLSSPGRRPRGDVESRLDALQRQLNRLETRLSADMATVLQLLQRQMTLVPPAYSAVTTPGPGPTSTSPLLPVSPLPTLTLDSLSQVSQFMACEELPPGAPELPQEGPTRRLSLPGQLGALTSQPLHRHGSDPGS

[27] = Ratio of drug level in C57BL/6J mouse brain to plasma at 20 mg/kg, po measured after 4 hrs; assay type: ADME, organism-based; details: read-out: BPR
[28] = Drug uptake in plasma of MDR1a knockout CF-1 mouse at 20 mg/kg, po measured at 2 hrs post last dose on day 1; assay type: ADME, organism-based
[29] = Tmax in C57BL/6J mouse at 5 mg/kg, iv or 20 mg/kg, po administered via gavage by LC-MS/MS analysis; assay type: ADME, organism-based; details: in vivo
[30] = Ratio of drug level in brain to plasma of diet-induced obese C57BL/6J mouse model at 30 mg/kg administered as daily dose measured at 2 hrs post last dose on day 5; assay type: ADME, organism-based; details: read-out: BPR
[31] = Drug uptake in brain of diet-induced obese C57BL/6J mouse model at 3 mg/kg, po administered as daily dose measured at 2 hrs post last dose on day 2; assay type: ADME, organism-based; details: in vivo
[32] = Metabolic stability in human liver microsomes assessed as parent compound remaining at 1 uM after 10 mins in presence of NADPH; assay type: ADME, microsome; details: read-out: Stability
[33] = system: Mus musculus; assay: Antiobesity activity in diet induced obese C57BL/6J mouse model assessed as decrease in body weight at 30 mg/kg administered as daily dose measured every day for 5 days; assay type: functional, organism-based

Structure (SMILES): O=c1cc(NC2CCN(S(=O)(=O)C(F)(F)F)CC2)c2cc(C(c3ccc(Cl)cc3)c3ccc(Cl)cc3)ccc2[nH]1
- Activity [1]: Active
- IC50 [2]: > 10 µM
- Drug uptake [3]: 0.06 nmol/g
- remaining at 10 min, 1 µM [4]: 100%
- Activity [5]: Active
- concentration at 2 h [6]: 8.65 µM
- Drug uptake [7]: 0.012 nmol/g
- Kp at 1 h [8]: 0.0073
- concentration at 2 h [9]: 4.08 µM
- IC50 [10]: > 10 µM
- remaining at 10 min, 1 µM [11]: 100%
- IC50 [12]: > 10 µM
- Kp [13]: 0.72
- Cmax [14]: 3.7 µM
- Activity [15]: Active
- Occ [16]: 71.6%
- EC50 [17]: > 10 µM
- Drug uptake [18]: 0.357 nmol/g
- concentration at 2 h [19]: 18.5 µM
- Kp at 2 h [20]: 0.065
- half-life [21]: 6.97 h
- Vd [22]: 0.456 L/kg
- Ratio IC50 [23]: 6
- Activity [24]: Non-Toxic
- IC50 [25]: > 10 µM
- IC50 [26]: > 50 µM
- Kp at 4 h [27]: 0.0099
- concentration at 2 h [28]: 4.95 µM
- Tmax [29]: 2 h
- Kp at 2 h [30]: 0.024
- Drug uptake [31]: < 4 nmol/g
- remaining at 10 min, 1 µM [32]: 100%
- Activity [33]: Active
